# Columns and labels:
# [1] = biological target: recombinant poly(ADP-ribose) polymerase 2 (PARP2); experiment: PARP2 chemiluminescent assay; assay type: biochemical; conditions: inhibition of PARP2 enzyme activity, chemiluminescence
# [2] = test system: MDA-MB-436 cells; experiment: Growth inhibition assay against BRCA mutant human breast cancer MDA-MB-436 cell line (CCK-8); assay type: cell-based; conditions: proliferation of MDA-MB-436 cells, 7 days
# [3] = biological target: PDE3A (Homo sapiens (Human), UniProt Q14432); experiment: PDE3A fluorescence polarization (FP) assay; assay type: biochemical; conditions: PDE3A enzyme activity, FAM-cAMP substrate
# [4] = biological target: recombinant poly(ADP-ribose) polymerase 1 (PARP1) (Homo sapiens (Human), UniProt P09874)
# Chain of recombinant poly(ADP-ribose) polymerase 1 (PARP1) (P09874 whole entry): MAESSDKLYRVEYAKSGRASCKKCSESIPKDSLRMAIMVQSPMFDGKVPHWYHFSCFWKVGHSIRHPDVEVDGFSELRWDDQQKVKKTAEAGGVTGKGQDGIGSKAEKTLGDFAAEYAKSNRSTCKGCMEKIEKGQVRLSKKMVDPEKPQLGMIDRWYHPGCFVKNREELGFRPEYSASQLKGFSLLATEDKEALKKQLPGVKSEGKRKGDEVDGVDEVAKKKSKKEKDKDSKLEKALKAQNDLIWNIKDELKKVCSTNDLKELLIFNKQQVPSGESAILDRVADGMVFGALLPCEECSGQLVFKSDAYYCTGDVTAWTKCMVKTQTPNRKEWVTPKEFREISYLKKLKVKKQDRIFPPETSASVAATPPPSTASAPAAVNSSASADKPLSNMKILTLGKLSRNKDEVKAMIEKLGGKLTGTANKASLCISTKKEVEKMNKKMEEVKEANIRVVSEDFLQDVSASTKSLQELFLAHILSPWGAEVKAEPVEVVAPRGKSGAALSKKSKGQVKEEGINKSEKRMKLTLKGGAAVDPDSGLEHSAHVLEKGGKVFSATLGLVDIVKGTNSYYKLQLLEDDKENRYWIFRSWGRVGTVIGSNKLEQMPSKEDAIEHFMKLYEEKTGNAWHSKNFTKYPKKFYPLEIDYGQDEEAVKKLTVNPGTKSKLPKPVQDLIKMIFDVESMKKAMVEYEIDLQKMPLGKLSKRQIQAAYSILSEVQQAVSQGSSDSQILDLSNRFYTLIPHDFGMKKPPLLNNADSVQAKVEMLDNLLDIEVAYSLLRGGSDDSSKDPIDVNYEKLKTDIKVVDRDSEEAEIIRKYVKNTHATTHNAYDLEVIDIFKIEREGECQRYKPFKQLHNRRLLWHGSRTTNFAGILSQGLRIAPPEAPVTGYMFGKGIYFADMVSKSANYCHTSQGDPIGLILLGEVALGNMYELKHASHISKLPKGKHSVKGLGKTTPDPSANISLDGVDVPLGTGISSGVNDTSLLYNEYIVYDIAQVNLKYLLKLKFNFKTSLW
# Chain of PDE3A (Q14432 whole entry): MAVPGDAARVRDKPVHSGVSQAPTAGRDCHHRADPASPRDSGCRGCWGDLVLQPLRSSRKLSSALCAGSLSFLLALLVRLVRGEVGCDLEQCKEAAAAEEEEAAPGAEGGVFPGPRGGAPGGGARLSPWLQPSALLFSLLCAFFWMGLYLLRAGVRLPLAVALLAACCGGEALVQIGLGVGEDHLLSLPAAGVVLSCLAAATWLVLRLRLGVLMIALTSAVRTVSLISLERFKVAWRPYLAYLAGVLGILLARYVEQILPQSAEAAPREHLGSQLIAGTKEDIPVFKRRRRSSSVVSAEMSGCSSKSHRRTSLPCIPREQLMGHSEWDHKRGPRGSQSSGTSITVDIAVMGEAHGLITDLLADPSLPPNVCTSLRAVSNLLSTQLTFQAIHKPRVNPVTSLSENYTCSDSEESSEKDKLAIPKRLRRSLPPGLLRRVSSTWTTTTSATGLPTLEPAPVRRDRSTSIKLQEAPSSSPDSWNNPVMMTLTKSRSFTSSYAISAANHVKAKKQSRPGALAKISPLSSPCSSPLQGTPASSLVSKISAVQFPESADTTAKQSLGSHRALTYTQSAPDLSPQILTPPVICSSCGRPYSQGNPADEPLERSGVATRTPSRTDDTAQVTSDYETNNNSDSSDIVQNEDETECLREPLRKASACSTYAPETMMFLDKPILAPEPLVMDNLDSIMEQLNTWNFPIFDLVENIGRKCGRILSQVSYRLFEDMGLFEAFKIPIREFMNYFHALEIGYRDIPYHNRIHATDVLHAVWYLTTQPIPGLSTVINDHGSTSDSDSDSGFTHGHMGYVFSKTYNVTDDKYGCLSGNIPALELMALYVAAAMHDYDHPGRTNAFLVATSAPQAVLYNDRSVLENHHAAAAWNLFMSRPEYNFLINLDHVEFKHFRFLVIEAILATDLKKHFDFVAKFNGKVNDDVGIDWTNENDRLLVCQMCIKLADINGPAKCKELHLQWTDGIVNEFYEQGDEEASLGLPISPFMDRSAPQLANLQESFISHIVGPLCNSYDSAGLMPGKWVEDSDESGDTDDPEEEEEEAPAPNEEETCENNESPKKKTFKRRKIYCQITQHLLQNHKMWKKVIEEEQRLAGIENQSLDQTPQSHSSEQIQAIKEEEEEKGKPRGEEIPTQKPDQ
IC50 [1],"IC50 ([2]; Homo sapiens, MDA-MB-436, […])",IC50 [3],IC50 [4],IC50 [2],SMILES
1330 nM,0.0055 µM,> 30 µM,0.00189 µM,,"CNC(=O)c1ccc(N2CCN(Cc3cc4[nH]c(=O)c5occc5c4cc3F)CC2)c(F)n1 [Example 102, 7-((4-(2-fluoro-6-(methylcarbamoyl)pyridin-3-yl)piperazin-1-yl)methyl)-8-fluorofuro[2,3-c]quinolin-4(5H)-one]"
199 nM,0.00348 µM,> 30 µM,0.00044 µM,,"CNC(=O)c1ccc(N2CCN(Cc3ccc4c([nH]c(=O)c5cnn(C)c54)c3F)CC2)c(F)n1 [Example 92, 6-fluoro-7-((4-(2-fluoro-6-(methylcarbamoyl)pyridin-3-yl)piperazin-1-yl)methyl)-1-methyl-1,5-dihydro-4H-pyrazolo[4,3-c]quinolin-4-one]"
5000 nM,0.0034 µM,16.6 µM,0.00172 µM,,"CCNC(=O)c1ccc(N2CCN(Cc3ccc4c([nH]c(=O)c5occc54)c3F)CC2)c(F)n1 [Example 66, 7-((4-(2-fluoro-6-(ethylcarbamoyl)pyridin-3-yl)piperazin-1-yl)methyl)-6-fluorofuro[2,3-c]quinolin-4(5H)-one]"
462 nM,,> 30 µM,0.00053 µM,0.00132 µM,"CNC(=O)c1ccc(N2CCN(Cc3ccc4c([nH]c(=O)c5c(F)cnn54)c3F)CC2)c(F)n1 [Example 122, 7-((4-(2-fluoro-6-(methylcarbamoyl)pyridin-3-yl)piperazin-1-yl)methyl)-3,6-difluoropyrazolo[1,5-a]quinoxalin-4(5H)-one]"
158 nM,0.00058 µM,1.3 µM,0.00026 µM,,"CNC(=O)c1ccc(N2CCN(Cc3ccc4c(c3)[nH]c(=O)c3occc34)CC2)c(F)n1 [Example 112, 7-((4-(2-fluoro-6-(methylcarbamoyl)pyridin-3-yl)piperazin-1-yl)methyl)furo[2,3-c]quinolin-4(5H)-one]"
194 nM,0.0165 µM,> 30 µM,0.00095 µM,,"CNC(=O)c1ccc(N2CCN(Cc3ccc4c([nH]c(=O)c5cn[nH]c54)c3F)CC2)c(F)n1 [Example 46, 7-((4-(2-fluoro-6-(methylcarbamoyl)pyridin-3-yl)piperazin-1-yl)methyl)-6-fluoro-1,5-dihydro-4H-pyrazolo[4,3-c]quinolin-4-one]"
166 nM,0.0035 µM,1.2 µM,0.00046 µM,,"CNC(=O)c1ccc(N2CCN(Cc3ccc4c(c3)[nH]c(=O)c3cocc34)CC2)c(F)n1 [Example 143, 7-((4-(2-fluoro-6-(methylcarbamoyl)pyridin-3-yl)piperazin-1-yl)methyl)furo[3,4-c]quinolin-4(5H)-one]"
315 nM,0.0019 µM,> 30 µM,0.00023 µM,,"O=C(NC1CC1)c1ccc(N2CCN(Cc3ccc4c([nH]c(=O)c5c(F)cnn54)c3F)CC2)c(F)n1 [Example 181, 7-((4-(2-fluoro-6-(cyclopropylcarbamoyl)pyridin-3-yl)piperazin-1-yl)methyl)-3,6-difluoropyrazolo[1,5-a]quinoxalin-4(5H)-one]"
1890 nM,0.0246 µM,> 25 µM,0.00129 µM,,"CNC(=O)c1ccc(N2CCN(Cc3ccc4c([nH]c(=O)n5c(C)cnc45)c3F)CC2)c(F)n1 [Example 141, 8-((4-(2-fluoro-6-(methylcarbamoyl)pyridin-3-yl)piperazin-1-yl)methyl)-3-methyl-7-fluoroimidazo[1,2-c]quinazolin-5(6H)-one]"
,0.00376 µM,> 30 µM,,,"CNC(=O)c1ccc(N2CCN(Cc3ccc4c([nH]c(=O)c5nn(C)cc54)c3F)CC2)c(F)n1 [Example 93, 6-fluoro-7-((4-(2-fluoro-6-(methylcarbamoyl)pyridin-3-yl)piperazin-1-yl)methyl)-2-methyl-2,5-dihydro-4H-pyrazolo[3,4-c]quinolin-4-one]"
,,0.58 µM,,,"CNC(=O)c1ccc(N2CCN(Cc3ccc4c(c3)[nH]c(=O)c3ccoc34)CC2)c(C)n1 [Example 6, 7-((4-(2-methyl-6-(methylcarbamoyl)pyridin-3-yl)piperazin-1-yl)methyl)furo[3,2-c]quinolin-4(5H)-one]"
,0.00141 µM,> 30 µM,,,"CNC(=O)c1ccc(N2CCN(Cc3ccc4c([nH]c(=O)c5c(Cl)cnn54)c3F)CC2)c(F)n1 [Example 60, 7-((4-(2-fluoro-6-(methylcarbamoyl)pyridin-3-yl)piperazin-1-yl)methyl)-6-fluoro-3-chloro-pyrazolo[1,5-a]quinoxalin-4(5H)-one]"
1390 nM,0.00176 µM,1.59 µM,0.00028 µM,,"CNC(=O)c1ccc(N2CCN(Cc3cc4[nH]c(=O)c5c(F)cnn5c4cc3F)CC2)c(C)n1 [Example 183, 7-((4-(2-methyl-6-(methylcarbamoyl)pyridin-3-yl)piperazin-1-yl)methyl)-3,8-difluoropyrazolo[1,5-a]quinoxalin-4(5H)-one]"
5580 nM,0.00586 µM,8.57 µM,0.00039 µM,,"CNC(=O)c1ccc(N2CCN(Cc3ccc4c([nH]c(=O)c5ccoc54)c3F)CC2)c(C)n1 [Example 43, 7-((4-(2-methyl-6-(methylcarbamoyl)pyridin-3-yl)piperazin-1-yl)methyl)-6-fluoro-furo[3,2-c]quinolin-4(5H)-one]"
1250 nM,0.00224 µM,28.9 µM,0.00084 µM,,"CNC(=O)c1ccc(N2CCN(Cc3ccc4c([nH]c(=O)n5cc(C)nc45)c3F)CC2)c(F)n1 [Example 140, 8-((4-(2-fluoro-6-(methylcarbamoyl)pyridin-3-yl)piperazin-1-yl)methyl)-2-methyl-7-fluoroimidazo[1,2-c]quinazolin-5(6H)-one]"
> 10000 nM,0.023 µM,> 30 µM,0.00057 µM,,"CNC(=O)c1ccc(N2CCN(Cc3ccc4c([nH]c(=O)c5c(C)cnn54)c3F)CC2)c(C(F)(F)F)n1 [Example 133, 7-((4-(2-trifluoromethyl-6-(methylcarbamoyl)pyridin-3-yl)piperazin-1-yl)methyl)-6-fluoro-3-methylpyrazolo[1,5-a]quinoxalin-4(5H)-one]"
> 10000 nM,0.0106 µM,> 30 µM,0.00195 µM,,"CNC(=O)c1ccc(N2CCN(Cc3ccc4c([nH]c(=O)c5c(C)cnn54)c3F)CC2)c(C)n1 [Example 57, 7-((4-(2-methyl-6-(methylcarbamoyl)pyridin-3-yl)piperazin-1-yl)methyl)-6-fluoro-3-methylpyrazolo[1,5-a]quinoxalin-4(5H)-one]"
,0.00312 µM,> 30 µM,,,"CNC(=O)c1ccc(N2CCN(Cc3ccc4c([nH]c(=O)c5c(C)cnn54)c3F)CC2)c(Cl)n1 [Example 131, 7-((4-(2-chloro-6-(methylcarbamoyl)pyridin-3-yl)piperazin-1-yl)methyl)-6-fluoro-3-methylpyrazolo[1,5-a]quinoxalin-4(5H)-one]"
,0.00248 µM,0.69 µM,,,"CNC(=O)c1ccc(N2CCN(Cc3cc(F)c4c(c3)[nH]c(=O)c3occc34)CC2)c(C)n1 [Example 40, 9-fluoro-7-((4-(2-methyl-6-(methylcarbamoyl)pyridin-3-yl)piperazin-1-yl)methyl)furo[2,3-c]quinolin-4(5H)-one]"
,,1.46 µM,,,"CNC(=O)c1ccc(N2CCN(Cc3ccc4c(c3)[nH]c(=O)c3occc34)CC2)c(C)n1 [Example 2, 7-((4-(2-methyl-6-(methylcarbamoyl)pyridin-3-yl)piperazin-1-yl)methyl)furo[2,3-c]quinolin-4(5H)-one]"
,0.00656 µM,13.9 µM,,,"O=C(NC1CC1)c1ccc(N2CCN(Cc3ccc4c([nH]c(=O)c5occc54)c3F)CC2)c(F)n1 [Example 67, 7-((4-(2-fluoro-6-(cyclopropylcarbamoyl)pyridin-3-yl)piperazin-1-yl)methyl)-6-fluorofuro[2,3-c]quinolin-4(5H)-one]"
,0.00558 µM,> 30 µM,,,"CNC(=O)c1ccc(N2CCN(Cc3ccc4c([nH]c(=O)c5c(F)cnn54)c3Cl)CC2)c(F)n1 [Example 192, 3-fluoro-7-((4-(2-fluoro-6-(methylcarbamoyl)pyridin-3-yl)piperazin-1-yl)methyl)-6-chloropyrazolo[1,5-a]quinoxalin-4(5H)-one]"
,0.00104 µM,0.88 µM,,,"CNC(=O)c1ccc(N2CCN(Cc3ccc4c(c3)[nH]c(=O)c3c(F)cnn34)CC2)c(F)n1 [Example 49, 7-((4-(2-fluoro-6-(methylcarbamoyl)pyridin-3-yl)piperazin-1-yl)methyl)-3-fluoropyrazolo[1,5-a]quinoxalin-4(5H)-one]"
709 nM,0.00506 µM,,0.00252 µM,,"CNC(=O)c1ccc(N2CCN(Cc3ccc4c(c3)[nH]c(=O)c3c[nH]cc34)CC2)c(C)n1 [Example 34, 7-((4-(2-methyl-6-(methylcarbamoyl)pyridin-3-yl)piperazin-1-yl)methyl)-2,5-dihydro-4H-pyrrolo[3,4-c]quinolin-4-one]"
,0.00391 µM,> 30 µM,,,"[2H]C([2H])([2H])NC(=O)c1ccc(N2CCN(Cc3ccc4c([nH]c(=O)c5c(C)cnn54)c3F)CC2)c(F)n1 [Example 159, 6-fluoro-7-((4-(2-fluoro-6-((methyl-d3)carbamoyl)pyridin-3-yl)piperazin-1-yl)methyl)-3-methylpyrazolo[1,5-a]quinoxalin-4(5H)-one]"
942 nM,0.0208 µM,,0.00425 µM,,"CNC(=O)c1ccc(N2CCN(Cc3cc4[nH]c(=O)c5cn(C)nc5c4cc3F)CC2)c(F)n1 [Example 91, 7-((4-(2-fluoro-6-(methylcarbamoyl)pyridin-3-yl)piperazin-1-yl)methyl)-8-fluoro-2-methyl-2,5-dihydro-4H-pyrazolo[4,3-c]quinolin-4-one]"

# Source: patent US20250215013A1, “SUBSTITUTED TRICYCLIC COMPOUNDS AS PARP INHIBITORS AND THE USE THEREOF” (IMPACT THERAPEUTICS (SHANGHAI), INC., priority 2022, published 2025)
